We go through four compounds from patent US5164399A, “Rapamycin pyrazoles” (American Home Products Corporation, priority 1991, dated 1992).

A word on the inhibition: it is the relative decrease from the control value, in per cent. Broadly, the IC50 is the concentration that inhibits the measured activity by half.

Where two headings read alike, the source gives them in different places.

Assay [1] has as its system cells from the thymus of normal BALB/c mice (lymphocyte proliferation). The experiment in a line: comitogen-induced thymocyte proliferation procedure (LAF). Format: cell-based. The settings on record: Mus musculus; for inhibition at 0.1 µM: read-out: LAF percent inhibition at 100 nM. As for the experimental part: (§1) Immunosuppressive activity was evaluated in an in vitro standard pharmacological test procedure to measure lymphocyte proliferation (LAF) and in two in vivo standard pharmacological test procedures. The first in vivo procedure was a popliteal lymph node (PLN) test procedure which measured the effect of compounds of this invention on a mixed lymphocyte reaction and the second in vivo procedure evaluated the survival time of a pinch skin graft.
Briefly, cells from the thymus of normal BALB/c mice are cultured for 72 hours with PHA and IL-1 and pulsed with tritiated thymidine during the last six hours. […] Cells are harvested and incorporated; radioactivity is determined. Inhibition of lymphoproliferation is assessed in percent change in counts per minute from non-drug treated controls. The results are expressed as the IC50, expressed in nM, or as the percent inhibition at 100 nM.

Assay [2] deals with pinch skin graft. The experiment in a line: survival time of pinch skin graft. Format: in vivo, male BALB/c mice recipients (male DBA/2 donors). Conditions: intraperitoneally. As for the experimental part:
as §1
The second in vivo test procedure is designed to determine the survival time of pinch skin graft from male DBA/2 donors transplanted to male BALB/c recipients. The method is adapted from Billingham R. E. and Medawar P. B., J. Exp. Biol. 28: 385-402, (1951). Briefly, a pinch skin graft from the donor is grafted on the dorsum of the recipient as a homograft, and an autograft is used as control in the same region. […] Untreated recipients serve as rejection control. The graft is monitored daily and observations are recorded until the graft becomes dry and forms a blackened scab. This is considered as the rejection day. The mean graft survival time (number of days±S.D.) of the drug treatment group is compared with the control group.

Assay [3] concerns popliteal lymph nodes (mixed lymphocyte reaction). The experiment in a line: in vivo popliteal lymph node (PLN) test procedure (mixed lymphocyte reaction). On the set-up: species or system C3H mice (BALB/c donors). As for the experimental part: as §1
A mixed lymphocyte reaction (MLR) occurs when lymphoid cells from genetically distinct animals are combined in tissue culture. Each stimulates the other to undergo blast transformation which results in increased DNA synthesis that can be quantified by the incorporation of tritiated thymidine. Since stimulating a MLR is a function of disparity at Major Histocompatibility antigens, an in vivo popliteal lymph node (PLN) test procedure closely correlates to host vs. graft disease. Briefly, irradiated spleen cells from BALB/c donors are injected into the right hind foot pad of recipient C3H mice. […] On Day 3 and Day 4, tritiated thymidine is given i.p., b.i.d. On Day 5, the hind popliteal lymph nodes are removed and dissolved, and radioactivity counted. The corresponding left PLN serves as the control for the PLN from the injected hind foot. Percent suppression is calculated using the non-drug treated animals as allogenic control. […]

In assay [4] the test system is organ grafts. The settings on record: histoincompatible rodents; cited from earlier work.
Assay [5] concerns Candida albicans. The settings on record: cited from earlier work.
Assay [6] relates to Candida albicans. Conditions: cited from earlier work. The source holds these as a separate data set.
[7] abbreviates: thymocytes, PHA and IL-1, 72 hours, tritiated thymidine, read-out: LAF IC50.

Regarding `CO[C@@H]1C(=O)/C(C)=C/[C@@H](C)C(=O)C[C@@H]([C@H](C)C[C@@H]2CC[C@@H](O)[C@H](OC)C2)OC(=O)[C@@H]2CCCCN2C(=O)C(=O)[C@]2(O)O[C@@H](CC[C@H]2C)C[C@H](OC)/C(C)=C/C=C/C=C/[C@@H](C)C[C@@H](C)C1=O` [Example 1, 31-Deoxy-31-oxorapamycin], the inhibition at 0.1 µM in assay [1] worked out at 41%. Further, the IC50 in assay [1] (setting [7]) came to 84.9 nM. In addition, the “Skin Graft (days ± SD), mean graft survival time” value in assay [2] was 9.16 ± 0.47 days.

For `CO[C@@H]1C(=O)/C(C)=C/[C@@H](C)C(=O)C[C@@H]([C@H](C)C[C@@H]2CCC(=O)[C@H](OC)C2)OC(=O)[C@@H]2CCCCN2C(=O)C(=O)[C@]2(O)O[C@@H](CC[C@H]2C)C[C@H](OC)/C(C)=C/C=C/C=C/[C@@H](C)C[C@@H](C)C1=O` [Example 2, 31,42-Dideoxy-31,42-dioxorapamycin], in assay [1], the inhibition at 0.1 µM turned out to be 4%.

Regarding `COc1c2n[nH]c1[C@H](C)C[C@H](C)/C=C/C=C/C=C(\C)[C@@H](OC)C[C@@H]1CC[C@@H](C)[C@@](O)(O1)C(=O)C(=O)N1CCCC[C@H]1C(=O)O[C@H]([C@H](C)C[C@@H]1CC[C@@H](O)[C@H](OC)C1)CC(=O)[C@H](C)/C=C/2C` [Example 3, 33-Deoxo-31-deoxy-31,33-(1-hydrazinyl-2-ylidene)rapamycin], the “PLN (ratio)” value in assay [3] (i.p. daily Day 0 to Day 4, ratio as defined) is 0.52. Moreover, in assay [1] (setting [7]), the IC50 was 205 nM.

On to `CO[C@H]1C[C@@H]2CC[C@@H](C)[C@@](O)(O2)C(=O)C(=O)N2CCCC[C@H]2C(=O)O[C@H]([C@H](C)C[C@@H]2CC[C@@H](O)[C@H](OC)C2)CC(=O)[C@H](C)/C=C(\C)[C@@H](O)[C@@H](OC)C(=O)[C@H](C)C[C@H](C)/C=C/C=C/C=C/1C` [Rapamycin, rapamycin], for which, in assay [3] (6 mg/kg, p.o.), the PLN suppression came to 86%. In assay [4], the “prolongation of survival time of organ grafts” value is reported as “prolong survival time”. Further, in assay [5], the “antifungal activity in vivo” value is “antifungal activity”. Further, the IC50 in assay [1] (read-out: LAF IC50 of rapamycin as a control for Example 1) stood at 0.2 nM. For the same compound, the inhibition at 0.1 µM in assay [1] stood at 94%. In addition, in assay [6], the “antifungal activity in vitro” value was “antifungal activity”. Also, in assay [2], the “Skin Graft (days ± SD), mean graft survival time” value amounted to 11.66 ± 0.47 days.
